ChEMBL document CHEMBL1134330, “Synthesis, in vitro pharmacology, and molecular modeling of syn-huprines as acetylcholinesterase inhibitors” (J Med Chem, 2001)
pIC50: −log10 of the molar value.

How the values were obtained:
Acetylcholinesterase [1] = target: Acetylcholinesterase (Homo sapiens, UniProt P22303); experiment: In vitro inhibitory concentration against acetylcholinesterase of human erythrocytes
Acetylcholinesterase [2] = target: T1, Acetylcholinesterase (Bos taurus, UniProt P23795)
T1 sequence (P23795 whole entry): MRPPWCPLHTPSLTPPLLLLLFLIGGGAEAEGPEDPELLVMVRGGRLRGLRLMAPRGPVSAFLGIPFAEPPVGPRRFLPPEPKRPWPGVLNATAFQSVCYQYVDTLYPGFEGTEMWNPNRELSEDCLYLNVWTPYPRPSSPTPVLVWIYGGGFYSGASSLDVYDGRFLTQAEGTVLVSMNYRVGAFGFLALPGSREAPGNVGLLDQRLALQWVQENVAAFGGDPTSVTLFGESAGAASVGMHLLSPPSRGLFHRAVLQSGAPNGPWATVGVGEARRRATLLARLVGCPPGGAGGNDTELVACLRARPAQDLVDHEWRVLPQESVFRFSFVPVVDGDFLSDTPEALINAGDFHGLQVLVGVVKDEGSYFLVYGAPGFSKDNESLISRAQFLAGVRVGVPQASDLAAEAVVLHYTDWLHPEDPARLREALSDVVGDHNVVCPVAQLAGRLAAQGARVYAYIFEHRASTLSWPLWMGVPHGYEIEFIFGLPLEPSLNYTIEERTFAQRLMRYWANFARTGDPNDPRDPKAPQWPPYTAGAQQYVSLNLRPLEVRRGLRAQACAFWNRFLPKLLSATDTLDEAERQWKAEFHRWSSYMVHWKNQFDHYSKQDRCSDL
Description: In vitro inhibitory concentration against bovine acetylcholinesterase enzyme

Cholinesterase = Cholinesterase (Homo sapiens, UniProt P06276)
Chain of Cholinesterase (P06276 whole entry): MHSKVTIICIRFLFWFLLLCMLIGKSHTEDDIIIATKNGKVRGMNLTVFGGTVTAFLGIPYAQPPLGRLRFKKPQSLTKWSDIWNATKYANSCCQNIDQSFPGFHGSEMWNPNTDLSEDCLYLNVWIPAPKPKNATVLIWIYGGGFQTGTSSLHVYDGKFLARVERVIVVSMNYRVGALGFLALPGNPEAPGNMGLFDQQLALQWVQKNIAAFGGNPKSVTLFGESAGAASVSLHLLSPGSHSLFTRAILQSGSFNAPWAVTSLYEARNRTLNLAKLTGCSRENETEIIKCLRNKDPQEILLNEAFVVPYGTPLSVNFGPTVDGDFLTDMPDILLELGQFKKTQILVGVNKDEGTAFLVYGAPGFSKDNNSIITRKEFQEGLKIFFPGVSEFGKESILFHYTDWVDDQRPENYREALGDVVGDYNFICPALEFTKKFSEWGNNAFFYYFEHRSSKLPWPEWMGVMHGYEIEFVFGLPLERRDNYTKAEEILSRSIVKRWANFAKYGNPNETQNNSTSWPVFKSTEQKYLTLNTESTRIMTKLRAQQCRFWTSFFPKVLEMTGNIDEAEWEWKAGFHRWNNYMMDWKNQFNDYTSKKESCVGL
Description: In vitro inhibitory concentration against BChE of human serum

Chain of Acetylcholinesterase (Homo sapiens, UniProt P22303) (P22303 whole entry): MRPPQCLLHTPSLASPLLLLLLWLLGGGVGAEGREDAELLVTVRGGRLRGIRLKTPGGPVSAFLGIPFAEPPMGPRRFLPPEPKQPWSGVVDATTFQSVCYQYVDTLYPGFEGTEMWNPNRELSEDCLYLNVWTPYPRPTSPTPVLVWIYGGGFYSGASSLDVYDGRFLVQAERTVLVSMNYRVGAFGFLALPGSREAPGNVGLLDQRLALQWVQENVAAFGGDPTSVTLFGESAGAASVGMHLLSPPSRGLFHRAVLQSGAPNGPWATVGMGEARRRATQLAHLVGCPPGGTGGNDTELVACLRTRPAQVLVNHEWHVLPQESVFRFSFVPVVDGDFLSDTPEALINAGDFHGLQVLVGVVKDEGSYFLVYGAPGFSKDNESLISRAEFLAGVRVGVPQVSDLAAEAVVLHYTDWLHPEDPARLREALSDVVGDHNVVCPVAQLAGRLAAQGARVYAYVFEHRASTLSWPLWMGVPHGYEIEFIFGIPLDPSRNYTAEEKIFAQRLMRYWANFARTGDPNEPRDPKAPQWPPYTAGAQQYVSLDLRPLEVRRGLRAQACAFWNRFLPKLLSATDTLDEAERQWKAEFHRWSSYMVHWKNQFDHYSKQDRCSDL

Structure (SMILES) | pIC50 (Acetylcholinesterase [1]) | pIC50 (Acetylcholinesterase [2]) | pIC50 (Cholinesterase)
CCC1=CC2CC(C1)Cc1nc3ccccc3c(N)c12 (racemic) | 7.11 | 6.78 | 7.20
CC1=CC2Cc3nc4ccccc4c(N)c3C(C1)C2 (racemic) | 7.29 | – | –
CCC1=CC2Cc3nc4ccccc4c(N)c3C(C1)C2 (racemic) | 7.42 | – | –
CC1=CC2CC(C1)Cc1nc3ccccc3c(N)c12 (racemic) | 6.36 | – | 6.83
